Results reported in patent US11938121B2, “Treatment of infections and biofilm formation using a cellulose synthase inhibitor” (Purdue Research Foundation, priority 2020, dated 2024).

Target: T1, GFP-CESA6c: GFP-tagged central cytosolic domain of AtCESA6 (cellulose synthase, CESA6) with a His-SUMO tag (Arabidopsis thaliana, UniProt Q94JQ6)
T1 construct: His-SUMO; made in house; host or cells: E. coli
T1 sequence (Q94JQ6 322-868 limits assumed): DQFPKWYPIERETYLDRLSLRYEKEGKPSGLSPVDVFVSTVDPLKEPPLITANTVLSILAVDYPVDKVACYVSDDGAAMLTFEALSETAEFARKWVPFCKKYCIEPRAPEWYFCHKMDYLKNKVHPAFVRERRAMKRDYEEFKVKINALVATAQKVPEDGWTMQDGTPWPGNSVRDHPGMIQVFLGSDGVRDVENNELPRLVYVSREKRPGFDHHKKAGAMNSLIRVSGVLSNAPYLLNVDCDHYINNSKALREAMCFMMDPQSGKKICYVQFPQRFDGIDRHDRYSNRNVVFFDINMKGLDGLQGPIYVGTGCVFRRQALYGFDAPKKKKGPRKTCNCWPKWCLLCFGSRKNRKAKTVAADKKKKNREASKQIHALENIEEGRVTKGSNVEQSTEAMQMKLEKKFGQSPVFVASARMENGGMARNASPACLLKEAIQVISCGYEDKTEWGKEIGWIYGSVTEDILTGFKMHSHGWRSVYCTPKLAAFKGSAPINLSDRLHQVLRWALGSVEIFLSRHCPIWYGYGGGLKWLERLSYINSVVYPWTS
Test: Microscale thermophoresis (MST) binding to purified GFP-tagged CESA6c (wild-type)
Conditions: FIGS. 3K-3M, 100 nM GFP-CESA6c purified from E. coli, pH 7.5, 10 mM MgCl2, 0.05% Tween 20, 5% DMSO, triplicate, read-out: Kd, thermophoresis binding curve, GFP-CESA6c
Description: FIGS. 3A-3Q. […] FIG. 3A to FIG. 3G. […] FIG. 3A. Representative 5-day-old dark-grown Arabidopsis Col-0 seedlings grown on growth medium supplemented with different concentrations of ES20 or ES20-1. Scale bar: 1 cm. FIG. 3B. Quantification of hypocotyl length of 5-day-old dark-grown Arabidopsis Col-0 seedlings described in FIG. 3A. Data represent mean±SD (n=12 seedlings). FIG. 3C. Quantification of crystalline cellulose content in the hypocotyl cell walls of 7-day-old dark-grown Col-0 seedlings grown on growth medium supplemented with DMSO (0.1%), 1 μM ES20, or 1 μM ES20-1. Data represent mean±SD (n=3 biological replicates). FIG. 3D and FIG. 3E. […] FIG. 3D. Representative image of 6-day-old rice seedlings grown in sterile water supplemented with DMSO (0.1%), 20 μM ES20, or 20 μM ES20-1. Scale bar: 1 cm. FIG. 3E. Quantification of root length of rice seedlings as described in FIG. 3D. Data represent mean±SD (n=10 seedlings). FIG. 3F and FIG. 3G. […] FIG. 3F. Representative image of 6-day-old maize seedlings grown in sterile water supplemented with DMSO (0.1%), 20 μM ES20, or 20 μM ES20-1. Scale bar: 1 cm. FIG. 3G. Quantification of root length of maize seedlings as described in FIG. 3F. Data represent mean±SD (n=12 seedlings). […] FIG. 3H. Representative immunoblot from a DARTS assay of ES20-1 and YFP-AtCESA6. FIG. 3I. Quantitative analysis of the band intensity of YFP-AtCESA6 and SEC12 in ES20-1-treated samples divided by that of DMSO-treated samples in the DARTS assay described in FIG. 3H. Data represent mean±SD (n=6 biological replicates). FIGS. 3J-3N. […] FIG. 3J. Coomassie blue staining of purified GFP-tagged CESA6c with a His-SUMO tag (lane 2). FIGS. 3K, 3L, 3M, 3N. […] FIG. 3O. Coomassie blue staining of purified GFP-tagged CESA6c^P595S with a His-SUMO tag (lane 2). FIG. 3P and FIG. 3Q. […] Statistically significant differences in FIG. 3B were determined using one-way ANOVA followed by Tukey's multiple comparisons test. Lower-case letters represent ANOVA results for plants grown on medium with 0.1% DMSO, different concentrations of ES20 or ES20-1. […]

Cc1ccccc1C(=O)NNC(=S)NC(=O)c1ccccc1 [ES20-1]
Kd: 4.4 ± 2.5 µM
